Assay results taken from patent US20240415972A1, “MICROFRAGMENTED FAT TISSUE AS DRUG DELIVERY SYSTEM IN LIVER CANCER THERAPY” (LIPOGEMS INTERNATIONAL S.P.A., priority 2021, published 2024).
≈ marks a conversion by molar mass, not a printed value. Read-outs that look alike come from different tables or passages of the source.

Assays:
MIB-1/Ki67 = assay: Immunohistochemistry of proliferation marker MIB-1/Ki67 in Hep-3B tumor of treated mice; format: in vivo, athymic nude-Foxn1nu mice; conditions: DMFAT-PTX at both dosages; free PTX 10 mg/kg
Description: After evaluation of conventional H&E stained, ten white sections were then obtained from each sample to be processed for immunohistochemical (IHC) staining. IHC was carried out automatically by means of Leica Bond MaxTM technology (Arginase, CK-PAN, CK7 and ANTI-EPATO) and Ventana Bench Mark Ultra (Ki-67): ANTI-HEPATO: antigen retrieval 30' EDTA, (dil. 1:300 clone […] Dako-Agilent); […] antigen retrieval 30' EDTA, (dil. 1:100 Clone SP156 Cell Marque […]. clone 30-9 Roche-Ventana); CK-PAN: antigen retrieval 5' Enzyma, (dil. 1:200 clone MNF116 Dako Agilent); CK-7: antigen retrieval 15' EDTA, dil. 1:100 clone OV-TL 12/20 Dako Agilent. All section stained was evaluated on NIKON ECLIPSE E 600 Microscopy equipped with OLYMPUS DP21 Camera.

Hep-3B cells = assay: PTX anti-proliferative activity on Hep-3B cells in culture; format: cell-based, human
Description: In (A) PTX at different concentration from 0.1 to 1000 ng/ml was added to cultured Hep-3B cells After 72 hours of incubation cells were detached and counted. […] In (B) photographs (10× magnification) of Hep-3B cultured in presence of PTX showing its potent growth inhibition at concentration up to 25 ng/ml are reported.
To this end, different concentration of PTX (from 0.1 ng/ml to 1000 ng/ml) were added to culture medium.

Hep-3B tumor = assay: In vivo anti-tumor activity, single-shot local injection next to sc Hep-3B tumor
Description: Five-week-old athymic nude-Foxn1nu mice were purchased from Envigo (Envigo, Bresso, Italy) and were housed under pathogen-free conditions. Experiments were reviewed and approved by the licensing and ethical committee of IZSLER (Istituto Zooprofilattico Sperimentale della Lombardia e dell'Emilia Romagna, Brescia, Italy) and by the Italian Ministry of Health.
In a preliminary experiment, 3 mice were injected subcutaneously (s.c.) with 5×10^6 Hep-3B cells in 100 ul of MTG in the right flank. Mice were observed daily to establish the day of tumor appearance and when the nodule was 1 cm in diameter, mice were sacrificed and tumor was removed and investigated to verify the HCC features by histological examination. […] In the first series of experiments, mice (n=6/group) were injected with 5×10^6 Hep-3B cells in the right flank (day 0). The tumors were allowed to grow to an average 0.5/0.7 cm in diameter corresponding to a tumor volume ranging from 65 to 179 mm^3 (median weight 120 mg) that were calculated using the formula 1/6πd^3 (13). […] Loading of PTX into just thawed DMFAT specimens were performed 20-30 minutes before injection as described above, adding 1 mg of PTX (around 166 μl of the stock PTX solution 6 mg/ml) to 1 ml of DMFAT and agitation. […] According to the ethical protocol, all the mice were sacrificed when the tumor nodule reached 2.0-2.5 cm in diameter (≥2 g of weight) or, whatever the diameter, sacrificed on day 60 after the transplant. […] Animals were euthanized with carbon dioxide inhalation, followed by cervical dislocation.

IC50, dose of PTX required to reduce 50% Hep-3B growth (Hep-3B cells; 72 hours of incubation, cells detached and counted): 0.015 ± 0.003 µg/mL | IC50 (Hep-3B cells; Homo sapiens, Hep3B, read-out: IC50, dose of PTX required to reduce 50% Hep-3B growth, 72 hours of incubation, cells detached and counted): 0.015 ± 0.002 µg/mL (≈ 0.0176 µM) | IC90 (Hep-3B cells; Homo sapiens, Hep3B, read-out: IC90, dose of PTX required to reduce 90% Hep-3B growth, 72 hours of incubation, cells detached and counted): 0.025 ± 0.008 µg/mL (≈ 0.0293 µM) | IC50 (Hep-3B cells; Homo sapiens, Hep3B, restated for comparison with tissue concentrations, read-out: IC50 of the PTX on Hep-3B cells): 0.015 µg/mL (≈ 0.0176 µM)
SMILES: CC(=O)O[C@H]1C(=O)[C@@]2(C)[C@H]([C@H](OC(=O)c3ccccc3)[C@]3(O)C[C@H](OC(=O)[C@H](O)[C@@H](NC(=O)c4ccccc4)c4ccccc4)C(C)=C1C3(C)C)[C@]1(OC(C)=O)CO[C@@H]1C[C@@H]2O [PTX, Paclitaxel]
Ki67 expression in tumor (MIB-1/Ki67): Some reduction | Skin lesions / ulceration at the site of injection (Hep-3B tumor; 10 mg/kg (200 μg/200 μl), local sc injection): did not induce skin ulcers | Effect on tumor growth compared to CTRL (Hep-3B tumor; series A: 200 μl, PTX 10 mg/kg where present): No significant effect | % of mice cured (Hep-3B tumor; series A: PTX 200 μg (10 mg/kg) where present, tumor-free after 90 days): 0% | Day of sacrifice (Hep-3B tumor; series A: single shot 200 μl, PTX 200 μg (10 mg/kg) where present): 33 ± 3 | % of mice tumor-free (Hep-3B tumor; series A: single shot 200 μl, PTX 200 μg (10 mg/kg) where present, at 60 days): 0% | HCC (TW) (Grams ± SD) (Hep-3B tumor; series A: single shot 200 μl, PTX 200 μg (10 mg/kg) where present, tumor weight at sacrifice): 2.010 ± 0.377 Grams
